Results on one molecule are retold here after publication PMC10620030, “New Organotin (IV) Compounds Derived from Dehydroacetic Acid and Thiosemicarbazides: Synthesis, Rational Design, Cytotoxic Evaluation, and Molecular Docking Simulation” (Bioinorganic Chemistry and Applications, 2023).

Series [1] has as its system MDA-MB-231 (human mammary adenocarcinoma) cell line. In words: sulforhodamine B (SRB) cytotoxicity assay on MDA-MB-231. The format is cell-based. The settings on record: mean ± SE of three or four assays, incubation 72 h, 48 h exposure. The procedure: (§1) The compounds were screened in vitro against two cancer cell lines, MCF-7 and MDA-MB-231 (human mammary adenocarcinoma), and the normal cell line Cos-7 (African green monkey kidney fibroblast). The MCF-7 and MDA-MB231 cell lines were cultured in RPMI-1640 medium, and Cos-7 was cultured in DMEM (Dulbecco's Modified Eagle's Medium) and supplemented with 10% of fetal bovine serum, 2 mM L-glutamine, 10000 units/ml penicillin G sodium, 10000 μg/ml streptomycin sulfate, 25 μg amphotericin B (Gibco), and 1% of nonessential amino acids (Gibco). The cell lines were maintained at 37°C in a humidified atmosphere with 5% CO2. The viability of the cells used in the experiments exceeded 95%, as determined with trypan blue.
(§2) The human tumor cytotoxicity was assessed using the protein-binding dye sulforhodamine B (SRB) in a microculture assay to measure the cell growth as described by. The human tumors and normal cells were treated with the complexes. The cells were removed from the tissue culture flask by treatment with trypsin and diluted with fresh media from the cell suspension to 100 μl containing 5000–10000 cells per well. The cells were then pipetted into 96 microliter plates (Costar) and incubated at 37°C for 24 h in a 5% CO2 atmosphere. Subsequently, 100 μl of a solution of the corresponding organotin complex at different concentrations was added to each well. […] After the incubation period, the cells were fixed to the plastic substratum by the addition of 50 μl of cold trichloroacetic acid (50% aqueous).
(§3) The plates were incubated at 4°C for one hour, washed with tap water, and air-dried. The addition of […] stained trichloroacetic acid-fixed cells. The free SRB was removed by washing with 1% aqueous acetic acid, the plates were air-dried, and the dyed was solubilized by adding ten mM unbuffered Tris base (100 μl). The plates were placed on a shaker for 10 min, and the absorption was measured at 515 nm using an ELISA plate reader (Bio-Tex Instruments).

In series [2] the test system is COS-7 (African green monkey kidney fibroblast) normal cell line. In words: sulforhodamine B (SRB) cytotoxicity assay on normal cell line COS-7. The format is cell-based. As to the method: as §1
The human tumor cytotoxicity was assessed using the protein-binding dye sulforhodamine B (SRB) in a microculture assay to measure the cell growth as described by. The human tumors and normal cells were treated with the complexes. The cells were removed from the tissue culture flask by treatment with trypsin and diluted with fresh media from the cell suspension to 100 μl containing 5000–10000 cells per well. The cells were then pipetted into 96 microliter plates (Costar) and incubated at 37°C for 24 h in a 5% CO2 atmosphere. Subsequently, 100 μl of a solution of the corresponding organotin complex at different concentrations was added to each well. The cultures were exposed to the compounds for 48 h. After the incubation period, the cells were fixed to the plastic substratum by the addition of 50 μl of cold trichloroacetic acid (50% aqueous).
as §3
For orientation: In SRB staining, fixed cells bind dye roughly in proportion to their protein.

In the next series the test system is MDA-MB-231 cell line. In words: morphological changes, Giemsa stain light microscopy, MDA-MB-231. The settings on record: 48 h treatment. The format is cell-based, human. As to the method: (§4) To evaluate the morphological alterations induced by organotin(IV) complexes, MCF-7 and MDA-MB231 cell lines were cultured on a tissue culture flask with or without different treatments for 48 h. After incubation, cells were washed two times with PBS, fixed with methanol 100%, and stained with Wright-Giemsa (Sigma-Aldrich, WG32-1L). The culture flasks were examined under an Olympus IX71 Inverted Fluorescence Phase Contrast Microscope. The images were recorded with a Nikon Coolpix 4300 digital camera using the 20x objectives and analyzed by ImageJ software.

The test system of a further series is MCF-7 cell line. In words: morphological changes, Giemsa stain light microscopy, MCF-7. The format is cell-based, human. The settings on record: 48 h treatment. As to the method: as §4
The subject of series [3] is MCF-7 (human mammary adenocarcinoma) cell line. Kind of series: sulforhodamine B (SRB) cytotoxicity assay on MCF-7. The class given is cell-based. The settings on record: mean ± SE of three or four assays, incubation 72 h, 48 h exposure. As to the method:
as §1, §2, §3

Entries after “also recorded” stand apart in the source; their conditions may differ.

`CC1=NN=C(Nc2ccccc2)[S][Sn]([CH2][Si](C)(C)C)([CH2][Si](C)(C)C)[O]c2cc(C)oc(=O)c21` [Compound 3e, 2,2-Bis(trimethylsilyl)methyl-7,10-dimethyl-4-(aminophenyl) Pyrane[3,4-h]-1,3,5,6,2-oxathiadiazastannonin-8-one]: the 50% inhibitory concentration (IC50) (as a rule, the concentration needed to halve the response being measured) in series [1] came to 140 ± 3 nM; in series [2] (normal cell line, SRB assay, mean ± SE of three or four assays) it was 250 ± 10 nM; in series [3], 40 ± 2 nM. Besides, the “Non-Cytotoxic concentration on normal cell line COS-7” value in series [2] (nondetectable effect on cell proliferation) turned out to be 0.01 µM. Also, the “morphological alterations MDA-MB-231” value in the series with MDA-MB-231 cell line was “cytoplasm vacuolization”. Further, the “morphological alterations MCF-7” value in the series on MCF-7 cell line is “Cell density decreased; also recorded: presence of nonadherent cells; also recorded: chromatin condensation and pyknotic nuclei”.
